Measurements: ChEMBL document CHEMBL5608215, “Development of amphipathic derivatives of thymol and carvacrol as potent broad-spectrum antibacterial agents” (Eur J Med Chem, 2024)
Active and inactive are the calls of the source. The rule behind the calls is not given here.

Legend:
[1] = Toxicity in KM mouse assessed as histopathological abnormality in heart upto 40 mg/kg, ip measured for 24 hrs by H and E staining based analysis; format: organism-based; conditions: in vivo
Staphylococcus aureus [2] = assay: Antibacterial activity against Staphylococcus aureus ATCC29213 infected in mouse model assessed as bacterial load reduction in abscesses at 5 mg/kg, sc measured after 24 hrs relative to control; format: functional; design: scale not given: the % may be the effect or the level left
Staphylococcus aureus [3] = assay: Antibacterial activity against Staphylococcus aureus ATCC29213 infected in mouse model assessed as bacterial load in abscesses at 10 mg/kg, sc measured after 24 hrs; format: functional
Escherichia coli [4] = assay: Bactericidal activity against Escherichia coli ATCC25922 at 8 times MIC incubated for 12 hrs by time-kill assay relative to control; format: functional
[5] = Toxicity in KM mouse assessed as histopathological abnormality in kidney upto 40 mg/kg, ip measured for 24 hrs by H and E staining based analysis; format: organism-based; conditions: in vivo
Staphylococcus aureus [6] = assay: Antibacterial activity against methicillin-resistant Staphylococcus aureus 21-5 by CLSI based serial dilution method; format: functional
Staphylococcus aureus [7] = assay: Antibacterial activity against Staphylococcus aureus ATCC29213 assessed as cell membrane damage at 8 times MIC by NucGreen/EthD-III staining based analysis; format: functional, organism-based
Staphylococcus aureus [8] = assay: Antibacterial activity against Staphylococcus aureus ATCC29213 by CLSI based serial dilution method; format: functional
Enterococcus faecalis = assay: Antibacterial activity against Enterococcus faecalis ATCC29212 assessed as cell surface disruption at 8 times MIC by SEM analysis; format: functional, organism-based
Escherichia coli [9] = assay: Antibacterial activity against Escherichia coli ATCC25922 in plasma pretreated plasma with compound for 6 hrs followed by bacterial infection into plasma; format: functional, organism-based
[10] = Toxicity in KM mouse assessed as damage in spleen upto 40 mg/kg, ip measured for 24 hrs by H and E staining based analysis; format: organism-based; conditions: in vivo
[11] = Toxicity in KM mouse assessed as damage in heart upto 40 mg/kg, ip measured for 24 hrs by H and E staining based analysis; format: organism-based; conditions: in vivo
Escherichia coli [12] = assay: Bactericidal activity against Escherichia coli ATCC25922 assessed as log reduction in bacterial growth at MIC incubated for 12 hrs by time-kill assay; format: functional
[13] = Toxicity in KM mouse assessed as damage in lung upto 40 mg/kg, ip measured for 24 hrs by H and E staining based analysis; format: organism-based; conditions: in vivo
Staphylococcus aureus [14] = assay: Bactericidal activity against Staphylococcus aureus ATCC29213 incubated upto 24 hrs by time-kill assay; format: functional, organism-based
[15] = Toxicity in KM mouse assessed as normal condition upto 40 mg/kg, ip measured for 24 hrs; format: organism-based; conditions: in vivo

Compound: CCCCCCCNC(=O)C[N+](C)(C)CCCCOc1cc(C)ccc1C(C)C.[Br-]
- Activity [1]: Non-Toxic
- Activity (Staphylococcus aureus [2]): 99.27%
- Activity (Staphylococcus aureus [3]): 2.46 log10CFU/g
- Activity (Escherichia coli [4]): 100%
- Activity [5]: Non-Toxic
- MIC (Staphylococcus aureus [6]): 4 µg/mL
- Activity (Staphylococcus aureus [7]): Active
- MIC (Staphylococcus aureus [8]): 0.5 µg/mL
- Activity (Enterococcus faecalis): Active
- Activity (Escherichia coli [9]): Active
- Activity [10]: Non-Toxic
- Activity [11]: Non-Toxic
- Activity (Escherichia coli [12]): >4 log10CFU/ml
- Activity [13]: Non-Toxic
- Activity (Staphylococcus aureus [14]): Dose-Dependent Effect
- Activity [15]: Non-Toxic
